Assays:
[1] = molecular target: Ephrin type-A receptor 2 (Homo sapiens) (UniProt P29317); experiment: Selectivity interaction (KinomeScan (DiscoverX)) EUB0000595a EPHA2; details: at 10 µM
[2] = molecular target: Receptor tyrosine-protein kinase erbB-2 (Homo sapiens, UniProt P04626); experiment: Selectivity interaction (KinomeScan (DiscoverX)) EUB0000045b ERBB2
[3] = molecular target: Mitogen-activated protein kinase 3 (Homo sapiens, UniProt P27361); experiment: Selectivity interaction (KinomeScan (DiscoverX)) EUB0000045b MAPK3
Chain of Mitogen-activated protein kinase 3 (P27361 whole entry): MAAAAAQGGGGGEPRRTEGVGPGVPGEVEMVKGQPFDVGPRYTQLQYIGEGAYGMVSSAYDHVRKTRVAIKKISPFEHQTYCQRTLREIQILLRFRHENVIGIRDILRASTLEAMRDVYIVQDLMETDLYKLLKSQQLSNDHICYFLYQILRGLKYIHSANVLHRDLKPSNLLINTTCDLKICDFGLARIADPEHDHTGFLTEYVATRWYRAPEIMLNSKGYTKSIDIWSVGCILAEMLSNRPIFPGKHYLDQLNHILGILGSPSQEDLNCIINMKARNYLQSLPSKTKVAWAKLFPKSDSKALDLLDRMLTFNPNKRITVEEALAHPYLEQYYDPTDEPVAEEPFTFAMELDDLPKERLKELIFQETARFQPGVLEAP

[4] = molecular target: T1, Serine/threonine-protein kinase TAO3 (Homo sapiens) (UniProt Q9H2K8); experiment: Selectivity interaction (KinomeScan (DiscoverX)) EUB0000618a TAOK3; details: at 10 µM
T1 sequence (whole entry): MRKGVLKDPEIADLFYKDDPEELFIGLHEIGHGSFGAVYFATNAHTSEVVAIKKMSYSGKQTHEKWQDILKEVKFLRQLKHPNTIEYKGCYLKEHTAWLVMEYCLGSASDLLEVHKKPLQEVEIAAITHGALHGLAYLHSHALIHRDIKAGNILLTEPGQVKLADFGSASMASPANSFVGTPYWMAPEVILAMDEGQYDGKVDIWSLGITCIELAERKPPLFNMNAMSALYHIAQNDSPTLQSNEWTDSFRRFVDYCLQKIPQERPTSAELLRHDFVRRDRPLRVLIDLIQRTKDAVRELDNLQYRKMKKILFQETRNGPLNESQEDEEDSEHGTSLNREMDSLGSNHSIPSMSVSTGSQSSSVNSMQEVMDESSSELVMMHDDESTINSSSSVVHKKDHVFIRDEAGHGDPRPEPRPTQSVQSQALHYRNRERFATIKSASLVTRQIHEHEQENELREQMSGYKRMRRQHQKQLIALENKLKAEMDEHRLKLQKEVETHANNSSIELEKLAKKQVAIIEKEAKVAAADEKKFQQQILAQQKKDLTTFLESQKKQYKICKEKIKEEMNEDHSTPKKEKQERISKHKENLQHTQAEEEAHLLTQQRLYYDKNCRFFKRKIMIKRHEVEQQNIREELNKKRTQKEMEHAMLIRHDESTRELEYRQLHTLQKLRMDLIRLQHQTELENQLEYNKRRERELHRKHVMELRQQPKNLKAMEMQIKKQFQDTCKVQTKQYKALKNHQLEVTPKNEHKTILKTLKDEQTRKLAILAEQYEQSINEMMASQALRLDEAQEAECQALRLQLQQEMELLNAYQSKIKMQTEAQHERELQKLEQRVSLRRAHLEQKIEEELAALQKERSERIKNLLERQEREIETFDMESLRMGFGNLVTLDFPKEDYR

[5] = molecular target: T2, Serine/threonine-protein kinase greatwall (Homo sapiens) (UniProt Q96GX5); experiment: Selectivity interaction (ActivX KiNativ screen (kinase selectivity in THP-1 cell lysates)) EUB0000639a MASTL; assay type: subcellular; details: lysate, at 0.04 µM
T2 sequence (whole entry): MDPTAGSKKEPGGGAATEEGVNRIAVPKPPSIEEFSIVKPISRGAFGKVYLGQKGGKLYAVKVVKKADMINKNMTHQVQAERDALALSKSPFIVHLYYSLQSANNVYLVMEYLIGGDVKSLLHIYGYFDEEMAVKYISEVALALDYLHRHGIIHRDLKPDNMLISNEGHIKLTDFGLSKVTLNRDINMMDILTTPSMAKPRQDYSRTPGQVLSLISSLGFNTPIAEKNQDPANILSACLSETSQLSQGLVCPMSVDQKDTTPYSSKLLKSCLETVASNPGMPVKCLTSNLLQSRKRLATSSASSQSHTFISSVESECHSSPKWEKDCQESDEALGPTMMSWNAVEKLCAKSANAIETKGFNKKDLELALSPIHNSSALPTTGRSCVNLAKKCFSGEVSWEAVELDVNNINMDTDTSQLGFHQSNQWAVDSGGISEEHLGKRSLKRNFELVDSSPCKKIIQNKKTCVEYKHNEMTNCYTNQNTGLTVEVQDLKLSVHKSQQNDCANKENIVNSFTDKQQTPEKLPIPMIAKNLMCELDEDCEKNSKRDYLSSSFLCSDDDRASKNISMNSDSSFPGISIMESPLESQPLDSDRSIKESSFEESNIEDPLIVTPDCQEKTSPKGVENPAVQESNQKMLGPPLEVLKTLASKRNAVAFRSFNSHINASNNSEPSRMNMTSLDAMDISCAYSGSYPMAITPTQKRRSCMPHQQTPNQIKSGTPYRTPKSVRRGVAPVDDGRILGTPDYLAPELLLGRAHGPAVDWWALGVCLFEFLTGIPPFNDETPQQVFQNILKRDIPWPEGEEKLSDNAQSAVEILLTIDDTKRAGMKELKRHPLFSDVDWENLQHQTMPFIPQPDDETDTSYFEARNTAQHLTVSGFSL

[6] = molecular target: Transient receptor potential cation channel subfamily M member 6 (Homo sapiens) (UniProt Q9BX84); experiment: Selectivity interaction (KinomeScan (DiscoverX)) EUB0000092b TRPM6; details: at 10 µM
Chain of Transient receptor potential cation channel subfamily M member 6 (Homo sapiens) (Q9BX84 whole entry): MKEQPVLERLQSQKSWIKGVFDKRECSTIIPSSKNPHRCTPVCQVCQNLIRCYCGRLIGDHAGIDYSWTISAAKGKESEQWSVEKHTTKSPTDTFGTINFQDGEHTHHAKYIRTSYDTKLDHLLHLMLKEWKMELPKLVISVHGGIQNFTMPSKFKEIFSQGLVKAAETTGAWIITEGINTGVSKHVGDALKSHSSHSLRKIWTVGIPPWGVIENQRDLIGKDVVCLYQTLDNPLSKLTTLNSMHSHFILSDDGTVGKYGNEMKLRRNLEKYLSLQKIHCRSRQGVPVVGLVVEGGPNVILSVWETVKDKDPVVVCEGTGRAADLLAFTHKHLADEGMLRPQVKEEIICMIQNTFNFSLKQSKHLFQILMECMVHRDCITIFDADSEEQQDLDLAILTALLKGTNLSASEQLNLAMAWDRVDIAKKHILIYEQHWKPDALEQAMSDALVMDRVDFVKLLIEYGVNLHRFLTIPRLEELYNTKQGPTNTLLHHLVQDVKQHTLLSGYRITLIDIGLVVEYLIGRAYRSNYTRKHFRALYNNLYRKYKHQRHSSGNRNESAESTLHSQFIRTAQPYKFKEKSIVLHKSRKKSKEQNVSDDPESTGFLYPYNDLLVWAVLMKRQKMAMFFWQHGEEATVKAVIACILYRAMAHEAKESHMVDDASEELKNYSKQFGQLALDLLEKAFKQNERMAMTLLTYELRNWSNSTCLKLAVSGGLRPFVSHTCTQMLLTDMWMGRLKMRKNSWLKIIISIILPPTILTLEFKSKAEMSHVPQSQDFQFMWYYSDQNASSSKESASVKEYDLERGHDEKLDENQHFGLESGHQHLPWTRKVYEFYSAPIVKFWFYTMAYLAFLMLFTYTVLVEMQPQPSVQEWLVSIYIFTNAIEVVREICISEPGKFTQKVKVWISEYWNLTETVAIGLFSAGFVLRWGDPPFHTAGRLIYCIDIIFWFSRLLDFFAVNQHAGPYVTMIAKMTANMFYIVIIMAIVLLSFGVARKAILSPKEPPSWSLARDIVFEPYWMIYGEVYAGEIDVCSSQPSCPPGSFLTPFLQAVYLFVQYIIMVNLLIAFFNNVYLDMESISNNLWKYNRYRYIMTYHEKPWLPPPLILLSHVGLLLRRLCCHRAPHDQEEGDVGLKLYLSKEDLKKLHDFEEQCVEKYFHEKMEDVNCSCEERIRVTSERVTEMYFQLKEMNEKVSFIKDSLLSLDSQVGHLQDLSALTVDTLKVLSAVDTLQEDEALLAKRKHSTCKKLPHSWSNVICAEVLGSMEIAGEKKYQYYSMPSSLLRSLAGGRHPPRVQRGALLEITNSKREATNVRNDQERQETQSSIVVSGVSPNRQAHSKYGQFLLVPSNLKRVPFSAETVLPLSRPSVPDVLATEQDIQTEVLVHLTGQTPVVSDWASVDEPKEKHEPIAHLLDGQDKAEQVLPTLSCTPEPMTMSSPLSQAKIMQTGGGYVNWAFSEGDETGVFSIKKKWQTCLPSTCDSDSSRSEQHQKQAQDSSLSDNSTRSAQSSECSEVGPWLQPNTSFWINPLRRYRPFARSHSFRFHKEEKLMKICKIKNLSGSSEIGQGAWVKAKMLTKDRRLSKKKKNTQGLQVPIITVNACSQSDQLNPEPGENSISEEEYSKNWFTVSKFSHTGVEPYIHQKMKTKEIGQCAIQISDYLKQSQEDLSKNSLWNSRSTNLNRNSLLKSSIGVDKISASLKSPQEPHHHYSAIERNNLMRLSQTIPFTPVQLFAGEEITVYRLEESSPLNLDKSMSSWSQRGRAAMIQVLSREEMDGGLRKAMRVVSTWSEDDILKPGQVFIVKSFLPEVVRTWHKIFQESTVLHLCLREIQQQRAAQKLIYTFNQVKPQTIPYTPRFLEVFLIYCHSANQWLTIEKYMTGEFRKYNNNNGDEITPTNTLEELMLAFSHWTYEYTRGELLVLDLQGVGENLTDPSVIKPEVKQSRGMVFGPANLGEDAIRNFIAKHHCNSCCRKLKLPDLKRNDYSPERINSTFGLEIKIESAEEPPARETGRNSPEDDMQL

[7] = molecular target: T3, Serine/threonine-protein kinase D2 (Homo sapiens) (UniProt Q9BZL6); experiment: Selectivity interaction (Ambit KINOMEscan and KiNATiv profiling in Jurkat cells) EUB0000090b PRKD2; assay type: cell-based; details: at 1 µM
T3 sequence (whole entry): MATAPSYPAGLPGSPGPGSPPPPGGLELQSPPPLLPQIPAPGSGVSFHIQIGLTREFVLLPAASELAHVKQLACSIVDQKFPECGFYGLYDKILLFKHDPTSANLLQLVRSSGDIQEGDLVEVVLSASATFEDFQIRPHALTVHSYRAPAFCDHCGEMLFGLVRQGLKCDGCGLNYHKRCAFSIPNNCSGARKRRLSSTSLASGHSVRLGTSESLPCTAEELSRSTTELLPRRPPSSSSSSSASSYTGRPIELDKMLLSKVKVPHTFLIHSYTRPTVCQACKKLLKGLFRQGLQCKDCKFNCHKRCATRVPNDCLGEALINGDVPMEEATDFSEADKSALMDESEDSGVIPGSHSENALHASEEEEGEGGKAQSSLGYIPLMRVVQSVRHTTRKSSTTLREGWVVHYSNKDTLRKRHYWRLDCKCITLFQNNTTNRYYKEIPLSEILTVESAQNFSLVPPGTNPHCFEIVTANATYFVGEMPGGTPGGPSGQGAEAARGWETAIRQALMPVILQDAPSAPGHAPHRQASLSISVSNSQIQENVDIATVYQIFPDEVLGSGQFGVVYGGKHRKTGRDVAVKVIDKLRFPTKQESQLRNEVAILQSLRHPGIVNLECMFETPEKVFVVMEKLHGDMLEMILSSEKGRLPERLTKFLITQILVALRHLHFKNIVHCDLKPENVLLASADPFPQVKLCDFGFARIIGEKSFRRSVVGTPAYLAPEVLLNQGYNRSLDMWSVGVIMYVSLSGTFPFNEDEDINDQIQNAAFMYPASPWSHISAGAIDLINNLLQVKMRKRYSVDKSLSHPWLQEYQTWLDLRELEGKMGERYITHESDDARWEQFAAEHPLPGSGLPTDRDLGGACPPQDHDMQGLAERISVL

Chain of Receptor tyrosine-protein kinase erbB-2 (P04626 whole entry): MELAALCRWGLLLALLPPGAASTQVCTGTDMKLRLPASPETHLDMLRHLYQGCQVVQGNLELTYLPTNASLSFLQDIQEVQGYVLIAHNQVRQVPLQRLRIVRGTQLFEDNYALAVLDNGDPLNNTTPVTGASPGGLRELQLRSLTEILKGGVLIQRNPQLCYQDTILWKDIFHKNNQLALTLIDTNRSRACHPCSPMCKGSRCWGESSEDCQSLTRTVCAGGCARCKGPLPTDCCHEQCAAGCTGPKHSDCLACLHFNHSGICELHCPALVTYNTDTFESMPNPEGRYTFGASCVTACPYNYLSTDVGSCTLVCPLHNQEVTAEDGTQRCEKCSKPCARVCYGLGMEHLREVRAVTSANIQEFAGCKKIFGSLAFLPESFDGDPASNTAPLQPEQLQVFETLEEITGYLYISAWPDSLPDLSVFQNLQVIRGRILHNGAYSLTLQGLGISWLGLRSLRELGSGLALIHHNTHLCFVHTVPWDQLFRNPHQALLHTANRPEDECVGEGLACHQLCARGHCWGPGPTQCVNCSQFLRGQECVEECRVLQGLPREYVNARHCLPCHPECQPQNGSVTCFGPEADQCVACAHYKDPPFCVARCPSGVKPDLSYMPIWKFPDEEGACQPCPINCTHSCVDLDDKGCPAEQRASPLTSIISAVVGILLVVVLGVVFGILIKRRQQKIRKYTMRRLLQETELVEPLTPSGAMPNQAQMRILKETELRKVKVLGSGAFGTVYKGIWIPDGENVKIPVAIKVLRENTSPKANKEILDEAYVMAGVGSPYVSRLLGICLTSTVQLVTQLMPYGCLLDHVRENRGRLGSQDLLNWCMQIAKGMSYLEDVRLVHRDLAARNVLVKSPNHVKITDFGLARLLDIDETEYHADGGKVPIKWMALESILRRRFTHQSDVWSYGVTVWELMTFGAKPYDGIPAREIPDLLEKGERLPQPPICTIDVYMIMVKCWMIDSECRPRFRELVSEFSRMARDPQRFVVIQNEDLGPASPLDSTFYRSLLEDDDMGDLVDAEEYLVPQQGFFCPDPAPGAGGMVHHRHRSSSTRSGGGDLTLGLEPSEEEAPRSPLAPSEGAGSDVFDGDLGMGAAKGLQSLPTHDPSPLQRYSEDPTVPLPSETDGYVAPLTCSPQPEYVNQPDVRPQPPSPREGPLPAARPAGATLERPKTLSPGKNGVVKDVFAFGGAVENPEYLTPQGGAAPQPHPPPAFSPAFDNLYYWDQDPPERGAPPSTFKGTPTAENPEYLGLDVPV
Chain of Ephrin type-A receptor 2 (Homo sapiens) (P29317 whole entry): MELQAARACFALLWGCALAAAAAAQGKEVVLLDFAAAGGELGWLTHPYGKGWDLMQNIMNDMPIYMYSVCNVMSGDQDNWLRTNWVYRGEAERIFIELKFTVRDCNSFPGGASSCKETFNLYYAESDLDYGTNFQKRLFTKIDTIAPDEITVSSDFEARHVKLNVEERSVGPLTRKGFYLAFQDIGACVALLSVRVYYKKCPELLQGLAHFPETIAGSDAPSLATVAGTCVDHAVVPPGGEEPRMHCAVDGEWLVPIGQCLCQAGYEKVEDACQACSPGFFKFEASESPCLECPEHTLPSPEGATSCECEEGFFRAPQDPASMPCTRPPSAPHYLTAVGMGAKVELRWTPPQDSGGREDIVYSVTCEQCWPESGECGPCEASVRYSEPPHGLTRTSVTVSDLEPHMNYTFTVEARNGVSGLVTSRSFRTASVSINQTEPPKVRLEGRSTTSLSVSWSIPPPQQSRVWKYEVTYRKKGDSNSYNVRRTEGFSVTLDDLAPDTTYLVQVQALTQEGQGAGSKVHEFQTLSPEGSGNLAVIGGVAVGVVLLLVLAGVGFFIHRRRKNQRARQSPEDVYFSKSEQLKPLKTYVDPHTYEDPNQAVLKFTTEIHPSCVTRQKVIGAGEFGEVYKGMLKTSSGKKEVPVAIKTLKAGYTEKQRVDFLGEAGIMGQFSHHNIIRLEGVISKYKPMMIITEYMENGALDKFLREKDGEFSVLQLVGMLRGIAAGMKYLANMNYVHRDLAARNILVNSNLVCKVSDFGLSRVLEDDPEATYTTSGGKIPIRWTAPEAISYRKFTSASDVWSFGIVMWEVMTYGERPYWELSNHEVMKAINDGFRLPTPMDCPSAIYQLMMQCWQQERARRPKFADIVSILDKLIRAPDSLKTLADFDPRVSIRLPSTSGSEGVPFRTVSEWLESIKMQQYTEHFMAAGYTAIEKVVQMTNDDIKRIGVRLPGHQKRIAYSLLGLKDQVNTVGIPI

`COCC(=O)NC/C=C/c1ccc2ncnc(Nc3ccc(Oc4ccc(C)nc4)c(C)c3)c2c1` [CP-724714] showed a % of control [1] of 100%.
`C=CC(=O)Nc1cc(-n2c(=O)ccc3cnc4ccc(-c5ccc(NS(C)(=O)=O)cc5)cc4c32)ccc1C` gave a % of control ([2]; at 1 µM) of 90%, a % of control ([2]; at 10 µM) of 26% and a % of control ([3]; at 1 µM) of 100%. It also gave a % of control ([3]; at 10 µM) of 79%.
Work on `O[C@H]1CC[C@H](Nc2ncc3nc(Nc4c(F)cc(F)cc4F)n([C@H]4CCOC4)c3n2)CC1` yielded a % of control [4] of 81%.
In the case of `CC[C@@H]1[C@H](F)C(=O)N[C@@H]1COc1nccc2cc(C(N)=O)c(OC)cc12` [ZIMLOVISERTIB], the % of inhibition [5] is reported as 3.9%.
In the case of `CCC(=O)N1CCN(c2ccc(-n3c(=O)ccc4cnc5ccc(-c6cnc7ccccc7c6)cc5c43)cc2C(F)(F)F)CC1`, the % of control [6] is reported as 100%.
Work on `CN(C)C/C=C/C(=O)Nc1ccc(C(=O)N2CCCC(Nc3ncc(Cl)c(-c4c[nH]c5ccccc45)n3)C2)cc1` (centres undefined) yielded a % of control [7] of 55%.

— ChEMBL document CHEMBL5465560, “Selectivity Literature for EUbOPEN Chemogenomic Library” (2024)
